The source of these data is US20080260817A1, “Compositions for the Treatment of Inflammation and Pain Using a Combination of a Cox-2 Selective Inhibitor and a Ltb4 Receptor Antagonist” (priority 2004, published 2008).

Type in all cases: in vivo
For experiment [1], the system named is collagen-induced arthritis in male DBA/1 mice. The experiment can be described thus: Collagen-induced arthritis in mice (incidence, severity, weight). To be noted: Table 4 (FIG. 2); evaluated day 56; treated from day 21; compound C-1 15 mpk bid, compound L-2 150 mpk bid, alone or combined.
The subject of experiment [2] is zymosan-stimulated air pouch, cells infiltrated per pouch. The experiment can be described thus: Murine air pouch model, 2 hour zymosan. To be noted: Table 7 (FIG. 1); female Balb/c mice; PO BID from day 5; pouch lavage 2 hours after 1% zymosan on day 7; 30 mpk COX-2 Inhibitor, 300mpk LTB4 RA, alone or combined. As to the method:
In the present invention, the anti-inflammatory effects of COX-2 inhibitors and LTB4 inhibitors, both alone and together, can be evaluated using the mouse air pouch model (see Example 1 and FIG. 1). Following the addition of a COX-2 inhibitor, or an LTB4 inhibitor, or both, to a zymosan-stimulated air pouch, results may be reported as the number of cells that have infiltrated per pouch as an indicator of inflammation.
Female Balb/c mice age 8-12 weeks are injected with approximately 5 milliliters of air subcutaneous using a 10 milliliter syringe with a 27-gauge needle and a 0.2 micron acrodisc filter. The animals are anesthetized with CO2/O2 mix, and then the air injection is made subcutaneously in the intrascapular region of the mouse. Animals' pouches are reinflated every 2-3 days with approximately 2-3 milliliters of air, same as above. Dosing of each compound, including Vehicle (0.5% Methylcellulose+0.025% Tween 80) or a COX-2 inhibitor (compound C-1, 15 mpk, BID), or an LTB4 receptor antagonist (compound L-2, 150 mpk, BID), or the COX-2 inhibitor combined with the LTB4 receptor antagonist (compound C-1, 30 mpk+compound L-2 150 mpk BID), starting on day 5 at 6 am. Compounds are given orally (PO) and dosed BID in a volume of 0.2 milliliters per/dose. […] Total cells/mouse is calculated using a coulter counter. […]

In experiment [3] the test system is collagen-induced arthritis in male DBA/1 mice. The experiment can be described thus: Collagen-induced arthritis in mice (incidence, severity, weight). To be noted: for Weight: in g (unit assumed); for % Incidence: individual inhibitors in the comparison experiment. As to the method: Arthritis is induced in 8-12 week old male DBA/1 mice by injection of 50 micrograms of chick type II collagen (CII) in complete Freunds adjuvant (Sigma) on day 0 at the base of the tail as described in J. Stuart, Annual Rev. Immunol., 2, 199 (1984). Compounds are prepared as a suspension in 0.5% methylcelluose (Sigma, St. Louis, Mo.), 0.025% Tween 20 (Sigma). The COX-2 inhibitors (Example 1 and 2) and LTB4 receptor antagonist (Example 3) are administered alone or a COX-2 inhibitor and an LTB4 receptor antagonist in combination. The compounds are administered in non-arthritic animals by gavage in a volume of 0.1 mL beginning on day 20 post collagen injection and continuing daily until final evaluation on day 55. Animals are boosted on day 21 with 50 micrograms of collagen (CII) in incomplete Freunds adjuvant. The animals are subsequently evaluated several times each week for incidence and severity of arthritis until day 56. Any animal with paw redness or swelling is counted as arthritic. Scoring of severity is carried out using a score of 0-3 for each paw (maximal score of 12/mouse) as described in P. Wooley, et al., Trans. Proc., 15, 180 (1983). The animals are measured for incidence of arthritis and severity in the animals where arthritis is observed. The incidence of arthritis is determined at a gross level by observing the swelling or redness in the paw or digits. Severity is measured with the following guidelines. Briefly, animals displaying four normal paws, i.e., no redness or swelling are scored 0. Any redness or swelling of digits or the paw is scored as 1. Gross swelling of the whole paw or deformity is scored as 2. Ankylosis of joints is scored as 3.
Eight- to twelve-week old male DBA/1 mice were injected at the base of the tail with 50 micrograms of chick type II collagen in CFA. 21 days later, animals were boosted with 50 micrograms chick type II collagen in IFA. […] On day 56 animals were evaluated for arthritis. Any animals displaying inflammation in the paw were included as positive for incidence. In addition, paw swelling was graded on a standard scale of 0-3/paw (total score of 12/animal).

Setting [4] is: Table 4 (FIG. 2), C-1 15 mpk bid, L-2 150 mpk bid, alone or combined.
Setting [5] is: Table 4 (FIG. 2), day 56, paw swelling graded 0-3/paw, total score of 12/animal, C-1 15 mpk bid, L-2 150 mpk bid, alone or combined.
Where [6] appears, read: Table 6 (FIG. 4), doses not given.
Where [7] appears, read: Table 6 (FIG. 4), score 0-3/paw, total 12/animal, doses not given.

`Cc1ccc(-c2cc(C(F)(F)F)nn2-c2ccc(S(N)(=O)=O)cc2)cc1` [COX-2 Inhib., celecoxib]: the “% Incidence” value in experiment [1] and in experiment [3] (setting [6]) was 100% throughout. For the same compound, the “Total Cells/Mouse” value in experiment [2] is listed as 40600000. Besides, the Weight in experiment [3] (setting [4]) and in experiment [3] (setting [6]) was 24.66 throughout. For the same compound, the Severity in experiment [3] (setting [5]) and in experiment [3] (setting [7]) was 5.1 in each case.
As for `O=C(O)C1(c2ccc3c(c2)OCC(Cc2ccc(-c4ccccc4)cc2)[C@H]3O)CCCC1` (stereo partly drawn) [LTB4 ra, 1-[3-([1,1′-biphenyl]-4-ylmethyl)-3,4-dihydro-4-hydroxy-2H-1-benzopyran-7-yl]-cyclopentanecarboxylic acid, (3S-trans)], the “% Incidence” value in experiment [1] and in experiment [3] (setting [6]) was 90% in each case. In addition, in experiment [2], the “Total Cells/Mouse” value worked out at 38900000. Besides, the Weight in experiment [3] (setting [4]) and in experiment [3] (setting [6]) was 26.77 throughout. Further, the Severity in experiment [3] (setting [5]) and in experiment [3] (setting [7]) was 2.7 in each case.
